Test results reported in patent publication US4075336A, “Thiazines and method” (Kanto Ishiseiyaku Co., Ltd., priority 1976, dated 1978).

How the values were obtained:
[1] = test system: rats; assay: Analgesic effect, Randall-Selitto method (pain threshold, carrageenan-inflamed paw); type: in vivo
Description: Using an analgesic effect measuring apparatus (made by Ugo Basile Co., Ltd.), pain thresholds in rats were measured as a function of elapsed time and compared with normal pain threshold values which had previously been determined. Each group consisted of 5 animals, which were subcutaneously given 0.1 ml of a 1% carrageenan suspension on their right paws. The test compounds were given orally, 1 hour before the carrageenan medication. The experiments were repeated twice under the same conditions. The mean values of the results obtained for 10 animals were compared with those of methiazinic acid.
The results obtained are shown in Table 1, wherein "OS" refers to oral administration.

[2] = test system: Wister-strain rats; assay: Anti-inflammatory effect, carrageenan-induced edema; type: in vivo; details: for inhibitory percent: vs control
Description: (Carrageenen-induced edema)
Wister-strain rats (each group consisting of 5 animals) were subcutaneously given 0.1 ml of a 1% carrageenan suspension on their right paws. The volumes of the right paws were measured prior to the administration, and thereafter were measured with elapsed time. The inhibitory percent was calculated, in comparison with a control, on the basis of the volume of edema induced. The volume was estimated with reference to the volume before the carrageenan-injection. The test compounds were orally administered 1 hour before the carrageenan-injection. The same experiments were repeated twice. The mean values of the results in all 10 animals were compared with those of methiazinic acid.

[3] = test system: dd strain mice; details: methiazinic acid; source of value not given; cited from earlier work
[4] = Acute toxicity, intraperitoneal (LD50, deaths); type: in vivo; details: mouse, in vivo, ip; intraperitoneal, dd strain mice, males and females
Description: (§1) Animals [dd strain mice; 5 groups of males and 5 groups of females, each group consisting of 8 animals] were intraperitoneally given the compound of this invention in doses of 2000, 2400, 2880, 3456 and 5000 mg/kg. […] Based on this finding, it may be concluded that the value of LD50 is at least more than 5000 mg/kg.

[5] = test system: dd strain mice; assay: Acute toxicity, intraperitoneal (LD50, deaths); type: in vivo
Description: as §1

[6] = 50 mg/kg per os, inflammated paw
[7] = 100 mg/kg per os, inflammated paw

## CN1c2ccccc2Sc2ccc(CC(=O)O)cc21 [Methiazinic acid, α-(10-methyl-2-pheno-thiazinyl)-acetic acid, reference compound]
[1]; [6]
  Analgesic coefficient: 0.74
  Pain threshold after 30 min.: 62.7 mm Hg
  Pain threshold after 60 min.: 57.7 mm Hg
  Pain threshold after 90 min.: 48.9 mm Hg
  Pain threshold after 120 min.: 43.5 mm Hg
  Pain threshold after 180 min.: 39.0 mm Hg
  Pain threshold after 240 min.: 44.5 mm Hg
  Pain threshold, before medication: 66.8 mm Hg
[1]; 50 mg/kg per os, normal paw
  Analgesic coefficient: 0.94
  Pain threshold after 30 min.: 66.2 mm Hg
  Pain threshold after 60 min.: 65.3 mm Hg
  Pain threshold after 90 min.: 63.8 mm Hg
  Pain threshold after 120 min.: 62.0 mm Hg
  Pain threshold after 180 min.: 59.7 mm Hg
  Pain threshold after 240 min.: 61.3 mm Hg
  Pain threshold, before medication: 67.2 mm Hg
[1]; [7]
  Analgesic coefficient: 0.83
  Pain threshold after 30 min.: 69.3 mm Hg
  Pain threshold after 60 min.: 66.7 mm Hg
  Pain threshold after 90 min.: 57.3 mm Hg
  Pain threshold after 120 min.: 49.5 mm Hg
  Pain threshold after 180 min.: 47.2 mm Hg
  Pain threshold after 240 min.: 47.2 mm Hg
  Pain threshold, before medication: 67.7 mm Hg
[1]; 100 mg/kg per os, normal paw
  Analgesic coefficient: 0.98
  Pain threshold after 30 min.: 69.0 mm Hg
  Pain threshold after 60 min.: 66.7 mm Hg
  Pain threshold after 90 min.: 65.5 mm Hg
  Pain threshold after 120 min.: 64.8 mm Hg
  Pain threshold after 180 min.: 62.8 mm Hg
  Pain threshold after 240 min.: 64.0 mm Hg
  Pain threshold, before medication: 66.9 mm Hg
[2]; 50 mg/kg per os, 1 hr.
  edema percent: 38.8%
  inhibitory percent: 19.6%
[2]; 50 mg/kg per os, 2 hrs.
  edema percent: 47.7%
  inhibitory percent: 25.5%
[2]; 50 mg/kg per os, 3 hrs.
  edema percent: 48.8%
  inhibitory percent: 29.2%
[2]; 50 mg/kg per os, 4 hrs.
  edema percent: 46.7%
  inhibitory percent: 25.2%
[2]; 50 mg/kg per os, 5 hrs.
  edema percent: 39.4%
  inhibitory percent: 32.9%
[2]; 100 mg/kg per os, 1 hr.
  edema percent: 34.2%
  inhibitory percent: 17.7%
[2]; 100 mg/kg per os, 2 hrs.
  edema percent: 38.1%
  inhibitory percent: 39.3%
[2]; 100 mg/kg per os, 3 hrs.
  edema percent: 40.1%
  inhibitory percent: 42.4%
[2]; 100 mg/kg per os, 4 hrs.
  edema percent: 39.7%
  inhibitory percent: 38.5%
[2]; 100 mg/kg per os, 5 hrs.
  edema percent: 36.0%
  inhibitory percent: 38.3%
[3]
  LD50: about 500 mg/kg

## COc1ccc(C2NC(=O)c3ccccc3S2)cc1O (centres unmarked) [Compound of this invention, 4-oxo-2-(3-hydroxy-4-methoxyphenyl)-2,3-dihydro-5,6-benzo-1,3-thiazine]
[4]
  LD50: > 5000 mg/kg
[5]; from LD50 values
  toxicity relative to that of methiazinic acid: less than one/tenth
[5]; intraperitoneal, 2000, 2400, 2880, 3456 and 5000 mg/kg, male and female dd strain mice
  deaths: no deaths were observed
[1]; [6]
  Analgesic coefficient: 0.73
  Pain threshold after 30 min.: 62.5 mm Hg
  Pain threshold after 60 min.: 57.7 mm Hg
  Pain threshold after 90 min.: 48.0 mm Hg
  Pain threshold after 120 min.: 41.8 mm Hg
  Pain threshold after 180 min.: 36.8 mm Hg
  Pain threshold after 240 min.: 44.2 mm Hg
  Pain threshold, before medication: 66.8 mm Hg
[1]; 50 mg/kg per os, normal paw
  Analgesic coefficient: 0.93
  Pain threshold after 30 min.: 66.7 mm Hg
  Pain threshold after 60 min.: 66.0 mm Hg
  Pain threshold after 90 min.: 64.0 mm Hg
  Pain threshold after 120 min.: 61.7 mm Hg
  Pain threshold after 180 min.: 57.3 mm Hg
  Pain threshold after 240 min.: 60.8 mm Hg
  Pain threshold, before medication: 67.3 mm Hg
[1]; [7]
  Analgesic coefficient: 0.82
  Pain threshold after 30 min.: 66.7 mm Hg
  Pain threshold after 60 min.: 63.7 mm Hg
  Pain threshold after 90 min.: 57.2 mm Hg
  Pain threshold after 120 min.: 49.0 mm Hg
  Pain threshold after 180 min.: 43.3 mm Hg
  Pain threshold after 240 min.: 43.2 mm Hg
  Pain threshold, before medication: 65.6 mm Hg
[1]; 100 mg/kg per os, normal paw
  Analgesic coefficient: 0.96
  Pain threshold after 30 min.: 65.0 mm Hg
  Pain threshold after 60 min.: 65.7 mm Hg
  Pain threshold after 90 min.: 65.2 mm Hg
  Pain threshold after 120 min.: 62.5 mm Hg
  Pain threshold after 180 min.: 61.0 mm Hg
  Pain threshold after 240 min.: 61.2 mm Hg
  Pain threshold, before medication: 66.0 mm Hg
[1]; 50 and 100 mg/kg, oral
  analgesic effect (in words): clearly exerts analgesic effects
  duration and strength of analgesic effect compared with methiazinic acid (in words): about the same duration and strength of effect as methiazinic acid
[2]; 50 mg/kg per os, 1 hr.
  edema percent: 29.3%
  inhibitory percent: 39.2%
[2]; 50 mg/kg per os, 2 hrs.
  edema percent: 43.1%
  inhibitory percent: 32.6%
[2]; 50 mg/kg per os, 3 hrs.
  edema percent: 43.1%
  inhibitory percent: 37.3%
[2]; 50 mg/kg per os, 4 hrs.
  edema percent: 42.4%
  inhibitory percent: 32.1%
[2]; 50 mg/kg per os, 5 hrs.
  edema percent: 37.4%
  inhibitory percent: 36.4%
[2]; 100 mg/kg per os, 1 hr.
  edema percent: 24.1%
  inhibitory percent: 42.1%
[2]; 100 mg/kg per os, 2 hrs.
  edema percent: 31.5%
  inhibitory percent: 49.9%
[2]; 100 mg/kg per os, 3 hrs.
  edema percent: 34.6%
  inhibitory percent: 50.4%
[2]; 100 mg/kg per os, 4 hrs.
  edema percent: 33.9%
  inhibitory percent: 47.5%
[2]; 100 mg/kg per os, 5 hrs.
  edema percent: 35.5%
  inhibitory percent: 39.1%
[2]; 50 and 100 mg/kg per os
  anti-inflammatory effect compared with methiazinic acid (in words): very similar to that of methiazinic acid
  duration of anti-inflammatory effect (in words): long duration effect, which was observed even after 5 hours
[2]; 50 and 100 mg/kg per os, 1 hour
  anti-inflammatory effect 1 hour after administration (in words): significant effect 1 hour after administration
